Data published in paper PMC12675575, “A BRET biosensor for measuring uncompetitive engagement of PRMT5 complexes in cells” (Nature Communications, 2025).
Values joined by “and” are separate entries in the source; they are usually repeats but may differ in a detail not shown here. Equal values may be shown once.

Experiments:
BRD9 = biological target: T1, BRD9 (Homo sapiens, UniProt Q9H8M2); experiment: CBH-002 affinity curve, HEK293, NL-BRD9 fusion (nuclear control); assay type: cell-based; parameters: BRET, CBH-002 + DMSO / BRET, CBH-002 + GSK3326595: unit not given here; conditions: for BRET, CBH-002 + DMSO / BRET, CBH-002 + GSK3326595: Figure S2F NL-BRD9, log([CBH-002])
T1 construct: host or cells: HEK293
T1 sequence (Q9H8M2 1-597): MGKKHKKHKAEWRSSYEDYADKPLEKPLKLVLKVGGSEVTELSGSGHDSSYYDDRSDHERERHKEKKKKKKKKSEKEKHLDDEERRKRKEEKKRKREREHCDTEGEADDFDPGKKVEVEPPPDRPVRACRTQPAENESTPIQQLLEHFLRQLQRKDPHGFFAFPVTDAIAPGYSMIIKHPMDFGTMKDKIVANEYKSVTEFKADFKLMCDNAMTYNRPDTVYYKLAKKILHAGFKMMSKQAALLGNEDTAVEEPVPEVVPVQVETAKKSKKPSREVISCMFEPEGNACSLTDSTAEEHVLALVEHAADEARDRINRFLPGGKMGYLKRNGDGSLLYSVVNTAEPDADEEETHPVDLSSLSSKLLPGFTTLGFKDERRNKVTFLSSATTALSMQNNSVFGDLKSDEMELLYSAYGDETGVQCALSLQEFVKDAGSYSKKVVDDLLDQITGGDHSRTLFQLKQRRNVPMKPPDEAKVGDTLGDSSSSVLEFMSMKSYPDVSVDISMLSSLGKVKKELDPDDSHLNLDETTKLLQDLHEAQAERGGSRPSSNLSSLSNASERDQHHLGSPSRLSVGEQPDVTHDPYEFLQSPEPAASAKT
Protocol: (§1) HEK293 cells (ATCC) were cultured in DMEM (Thermo Fisher) + 10% (v/v) FBS (Seredigm), and HCT116 cells (Horizon Discovery, #PAR-034 and #R02-033) were cultured in McCoy’s 5A (Thermo Fisher) + 10% FBS, with incubation in a humidified, 37 °C/5% CO2 incubator. Cells were split 1–3 days prior to performing experiments and used at roughly 80% confluency. […] Cells were transfected according to the manufacturer’s protocol using FuGENE HD (Promega). NanoLuc fusion DNA was diluted into Transfection Carrier DNA (Promega) in Opti-MEM at a ratio of 1:9 (mass/mass), and FuGENE HD was added at a ratio of 1:3 (μg DNA:μL lipid). For experiments using WDR77, untagged WDR77 DNA (Promega) was used in place of Carrier DNA. Formed complexes were combined with cells resuspended to a density of 2 × 10^5 cells/mL in Opti-MEM + 1% FBS at a ratio of 1:20 (vol:vol). Cells were plated into a flask and incubated at 37 °C in a humidified 5% CO2 atmosphere for 18–24 h, before being lifted and seeded into 96-well non-binding surface-treated plates (Corning). Cells were seeded at a density of 2 × 10^5 cells/mL in Opti-MEM + 1% FBS in 100 μL (96-well). The BRET probe CBH-002 was prepared first as a 100× stock in 100% DMSO (Sigma) and then diluted to a 20× stock in NanoBRET Tracer Dilution buffer (Promega). Test compounds were prepared as 1000× stocks in 100% DMSO and diluted to 10× stocks in Opti-MEM to prepare working stocks. […] NanoBRET Complete 3x Substrate was prepared by combining Nano-Glo Substrate and Extracellular NanoLuc Inhibitor in Opti-MEM, according to the manufacturer’s protocol (Promega). NanoBRET Complete 3× Substrate was added to cells and plates were measured on either a PheraSTAR FSX equipped with 450 nm (donor) and 610 nm (acceptor) filters, or a GloMAX Discover equipped with 450/8 nm BP (donor) and 600 nm LP (acceptor) filters, using a 0.3 s integration time.
(§2) EC50 values were obtained by fitting the BRET probe and compound affinity curves to a sigmoidal four-parameter fit model in Graphpad Prism:1 Y=Ymin+Ymax−Ymin/1+10^LogEC50−Xh where h is the Hill Slope.

RIPK2 = biological target: T2, RIPK2 (Homo sapiens, UniProt O43353); experiment: CBH-002 affinity curve, HEK293, RIPK2-NL fusion (cytosolic control); assay type: cell-based; parameters: BRET, CBH-002 + DMSO / BRET, CBH-002 + GSK3326595: unit not given here; conditions: for BRET, CBH-002 + DMSO / BRET, CBH-002 + GSK3326595: Figure S2E RIPK2-NL, log([CBH-002])
T2 construct: host or cells: HEK293
T2 sequence (O43353 whole entry, the tested form may be a part): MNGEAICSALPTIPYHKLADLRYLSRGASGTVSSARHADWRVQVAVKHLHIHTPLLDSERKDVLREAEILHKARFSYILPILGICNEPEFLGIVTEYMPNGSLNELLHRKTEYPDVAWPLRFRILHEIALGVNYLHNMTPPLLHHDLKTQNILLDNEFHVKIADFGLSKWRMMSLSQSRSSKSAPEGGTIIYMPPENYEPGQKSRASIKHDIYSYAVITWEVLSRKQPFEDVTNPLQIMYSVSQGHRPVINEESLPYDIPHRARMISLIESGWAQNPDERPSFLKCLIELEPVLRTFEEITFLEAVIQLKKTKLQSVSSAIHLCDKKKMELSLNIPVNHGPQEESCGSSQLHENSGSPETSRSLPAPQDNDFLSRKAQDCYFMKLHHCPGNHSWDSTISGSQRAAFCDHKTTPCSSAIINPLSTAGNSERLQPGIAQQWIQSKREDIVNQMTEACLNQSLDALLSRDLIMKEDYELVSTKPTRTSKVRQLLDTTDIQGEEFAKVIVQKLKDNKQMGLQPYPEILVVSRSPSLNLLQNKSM
Protocol: as §1, §2

BRET, CBH-002 + DMSO (BRD9; uM 0.04576): 1.963 and 1.6096 and 1.753
BRET, CBH-002 + GSK3326595 (BRD9; uM 0.04576): 1.941 and 1.894 and 1.502
BRET, CBH-002 + DMSO (BRD9; uM 0.52288): 4.746 and 4.673 and 4.368
BRET, CBH-002 + GSK3326595 (BRD9; uM 0.52288): 4.553 and 4.659 and 4.5888
BRET, CBH-002 + DMSO (BRD9; uM 1): 11.9924 and 12.071 and 11.0213
BRET, CBH-002 + GSK3326595 (BRD9; uM 1): 12.0831 and 11.2046 and 11.118
BRET, CBH-002 + DMSO (BRD9; uM -0.43136): 0.6619 and 0.5821 and 0.5347
BRET, CBH-002 + GSK3326595 (BRD9; uM -0.43136): 0.7878 and 0.6009 and 0.5811
CBH-002 engagement at BRD9 (printed BDR9) (BRD9; HEK293, NL-BRD9): did not show engagement
BRET, CBH-002 + DMSO (RIPK2; uM 0.04576): 1.852 and 1.939 and 2.142
BRET, CBH-002 + GSK3326595 (RIPK2; uM 0.04576): 1.842 and 1.813 and 1.9392
BRET, CBH-002 + DMSO (RIPK2; uM 0.52288): 5.1141 and 4.646 and 5.258
BRET, CBH-002 + GSK3326595 (RIPK2; uM 0.52288): 4.515 and 4.266 and 4.4734
BRET, CBH-002 + DMSO (RIPK2; uM 1): 11.7522 and 11.9286 and 12.3306
BRET, CBH-002 + GSK3326595 (RIPK2; uM 1): 11.5342 and 11.3369 and 11.377
BRET, CBH-002 + DMSO (RIPK2; uM -0.43136): 0.8543 and 0.8172 and 0.8282
BRET, CBH-002 + GSK3326595 (RIPK2; uM -0.43136): 0.5912 and 0.5546 and 0.9723
CBH-002 engagement at RIPK2 (RIPK2; HEK293, RIPK2-NL): did not show engagement
SMILES: O=C(CCc1ccc2n1[B-](F)(F)[N+]1=C(c3ccc[nH]3)C=CC1=C2)NCCCCC(=O)N1CCC(Nc2cc(C(=O)NC[C@H](O)CN3CCc4ccccc4C3)ncn2)CC1 [CBH-002]
